The source of these data is patent US11912681B2, “Crystalline and salt forms of PPAR agonist compounds” (Mitobridge, Inc., priority 2016, dated 2024).

Common to all, as to type: physicochemical
Data set [1] is described as follows: Physical stability on storage by XRPD. The note with it: all storage conditions of the stability study. Here is the method: (§1) The material was stored at 4° C., 25° C./60% RH, 40° C., and 40° C./75% RH for eight weeks as well as stressed conditions of 70° C. and 70° C./75% RH for two weeks. In addition, photostability was also measured after exposing the material to two cycles of ICH conditions. Degradation and recovery was measured by HPLC. See Table 6 for HPLC results, including percent recovery of solids and relative retention time area percentages, compared against the standard stored at 4° C.
XRPD was used to check the physical stability.

Data set [2] in a line: Dynamic vapor sorption analysis (hygroscopicity). An excerpt:
At approximately 90% RH, the material reversibly picks up approximately 3.5% water by weight.

Data set [3] is described as follows: Stability of Compound A salts in water (XRPD). The following applies: about 20 mg in 1 mL water, overnight, 20° C., 850 rpm. As for the experimental part: The stability of the sulfate, phosphate, L-lysine, and TRIS salts prepared in Example 3 were tested. Approximately 20 mg of each sample was combined with 1 mL of water in microcentrifuge tubes. The samples were allowed to mix overnight on a temperature controlled shaker at 20° C. at 850 rpm. The solids were characterized by XPRD to determine if a solid state form change occurred.

Data set [4] in a line: Chemical stability study, degradation and recovery by HPLC. Here is the method: as §1
Data set [5] is described as follows: Thermodynamic stability form (slurry) screen, XRPD. The note with it: fifteen days. As for the experimental part:
The vials were sealed then placed onto temperature controlled stir plates and stirred for fifteen days at 500 rpm.

The nature of data set [6]: Relative thermodynamic stability of hemisulfate form 1 and form 2 (DSC, competition slurry). The note with it: ethyl acetate, two days at 25° C. then eight days at 4° C., slurried with form 1. As for the experimental part: […] Both forms were still present in the slurry, so the experiment was moved to 4° C.
After two days, both forms were still present in the slurry, so the experiment was moved to 4° C.

With `Cc1cnc(-c2ccc(C(F)(F)F)cc2)n1Cc1ccccc1OCCC[C@@H](C)CC(=O)O` [Compound A hemisulfate form 1, (R)-3-methyl-6-(2-((5-methyl-2-(4-(trifluoromethyl)phenyl)-1H-imidazol-1-yl)methyl)phenoxy)hexanoic acid], the “physical stability, solid state form (XRPD)” value in data set [1] was “No changes in solid state form”. Besides, the “water picked up by weight (DVS)” value in data set [2] (25° C., approximately 90% RH, reversible) was “approximately 3.5%”. In addition, the “solid form after DVS (XRPD)” value in data set [2] (after DVS at 25° C.) is given as “remained Compound A hemisulfate form 1”. The “solid state form change (XRPD) after mixing in water” value in data set [3] is reported as “no change in the solids”. For the same molecule, the “% recovery of solids (HPLC)” value in data set [4] (4° C., 4 wk) came to 101%; in data set [4] (4° C., 8 wk), 100%; in data set [4] (25° C./60% RH, 4 wk), 100%; in data set [4] (25° C./60% RH, 8 wk), 99%; in data set [4] (40° C., 4 wk) it was 101%; in data set [4] (40° C., 8 wk) it was 101%. The “% recovery of solids (HPLC)” value in data set [4] (40° C./75% RH, 4 wk) is 101%; in data set [4] (40° C./75% RH, 8 wk) it was 100%; in data set [4] (70° C., 2 wk) it was 101%; in data set [4] (70° C./75% RH, 2 wk), 101%; in data set [4] (Control (dark) of photostability) it was 100%; in data set [4] (Photo, two cycles of ICH conditions), 98%. Further, the “Results (solid state form after slurry)” value in data set [5] (2-Methyl-THF, 25° C.) was “No change in form”; in data set [5] (2-Propanol, 50° C.), “No change in form”; in data set [5] (Acetone, 25° C.) it was “No change in form”; in data set [5] (Acetonitrile, 50° C.), “No change in form”; in data set [5] (CPME, 50° C.), “No change in form”; in data set [5] (Dichloromethane, 4° C.), “No change in form”. Moreover, the “Results (solid state form after slurry)” value was “No change in form” in data set [5] (Ethanol, 50° C.); “No change in form” in data set [5] (Ethyl Acetate, 50° C.); “No change in form” in data set [5] (Tetrahydrofuran, 25° C.); “No change in form” in data set [5] (Toluene, 50° C.); “No change in form” in data set [5] (Water, 25° C.); “No change in form” in data set [5] (Water/Acetonitrile (1/3, v/v), 4° C.).
`Cc1cnc(-c2ccc(C(F)(F)F)cc2)n1Cc1ccccc1OCCC[C@@H](C)CC(=O)O` [Compound A hemisulfate form 2, (R)-3-methyl-6-(2-((5-methyl-2-(4-(trifluoromethyl)phenyl)-1H-imidazol-1-yl)methyl)phenoxy)hexanoic acid]: the “competition slurry outcome (XRPD)” value in data set [6] was “remained a mixture of forms”.
